Key:
[1] = system: Venturia inaequalis; test: Venturia test (apple) / protective; assay type: in vivo; settings: apple plants, protective spray, 5 ppm active compound, evaluated 12 days after inoculation
Excerpt: Venturia-Test (Apfel) / protektiv
Lösungsmittel: 4,7 Gewichtsteile Aceton Emulgator: 0,3 Gewichtsteile Alkylarylpolyglykolether
(§1) Zur Herstellung einer zweckmäßigen Wirkstoffzubereitung vermischt man 1 Gewichtsteil Wirkstoff mit den angegebenen Mengen Lösungsmittel und Emulgator und verdünnt das Konzentrat mit Wasser auf die gewünschte Konzentration.
Zur Prüfung auf protektive Wirksamkeit bespritzt man junge Pflanzen mit der Wirkstoffzubereitung bis zur Tropfnässe. Nach Antrocknen des Spritzbelages werden die Pflanzen mit einer wäßrigen Konidiensuspension des Apfelschorferregers (Venturia inaequalis) inokuliert und verbleiben dann 1 Tag bei 20°C und 100 X relativer Luftfeuchtigkeit in einer Inkubationskabine.
Die Pflanzen werden dann im Gewächshaus bei 20 °C und einer relativen Luftfeuchtigkeit von ca. 70 % aufgestellt.
12 Tage nach der Inokulation erfolgt die Auswertung.

[2] = system: Erysiphe graminis f.sp.hordei; test: Erysiphe test (barley) / protective; assay type: in vivo; settings: evaluated 7 days after inoculation
Excerpt: Erysiphe-Test (Gerste) / protektiv
Lösungsmittel: 100 Gewichtsteile Dimethylformamid Emulgator: 0,25 Gewichtsteile Alkylarylpolyglykolether
as §1
Zur Prüfung auf protektive Wirksamkeit besprüht man junge Pflanzen mit der Wirkstoffzubereitung taufeucht. Nach Antrocknen des Spritzbelages werden die Pflanzen mit Sporen von Erysiphe graminis f.sp.hordei bestäubt.
Die Pflanzen werden in einem Gewächshaus bei einer Temperatur von ca. 20°C und einer relativen Luftfeuchtigkeit von ca. 80 % aufgestellt, um die Entwicklung von Mehltaupusteln zu begünstigen.
7 Tage nach der Inokulation erfolgt die Auswertung.

[3] = biological target: T1, Cutinase (Fusarium vanettenii, UniProt P00590); test: Cutinase inhibitor test; assay type: biochemical, Fusarium solani f.sp.pisi; settings: p-Nitrophenylbutyrat as substrate, 30 min incubation at 30°C, phosphate buffer 0,1 M pH 8 + 0,3% Triton X-100; read-out: I50
T1 construct: Das Enzym Cutinase wird aus Kulturfiltrat von Fusarium solani f.sp.pisi nach Standardmethoden gereinigt; endogenous in cells; host or cells: Culture filtrate of Fusarium solani f.sp. pisi (enzyme secreted by the fungus and purified)
T1 sequence (P00590 32-230): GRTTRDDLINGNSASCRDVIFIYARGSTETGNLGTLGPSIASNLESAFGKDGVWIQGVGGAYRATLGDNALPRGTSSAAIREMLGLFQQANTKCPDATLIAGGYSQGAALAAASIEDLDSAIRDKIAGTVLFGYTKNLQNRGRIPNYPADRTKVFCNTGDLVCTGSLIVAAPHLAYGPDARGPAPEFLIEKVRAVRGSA
Protocol: Das Enzym Cutinase wird aus Kulturfiltrat von Fusarium solani f.sp.pisi nach Standardmethoden gereinigt und photometrisch mit p-Nitrophenylbutyrat als Substrat getestet (P.E. Kolattukudy, K.E. Espelie, C.L. Soliday (1981), Meth. Enzymol. 71, 652).
Die Inhibitor-Wirkung wird einer beschriebenen Methode folgend bestimmt (W. Köller, C.R. Allan, P.E. Kolattukudy (1982), Phytopathoiopy 72, 1425): Eine geeignete Menge Enzym wird zusammen mit dem Wirkstoff in gewünschter Konzentration in 1 ml Phosphatpuffer (0,1 M; pH 8) + 0,3% (w/v) Triton X-100 bei 30°C inkubiert. Nach 30 Minuten Inkubation wird die enzymatische Restaktivität bestimmt. Anhand einer Dosis-Wirkungs-Beziehung wird der I(50)-Wert (= diejenige Wirkstoff-Konzentration, die zu einer Inhibierung von 50 % führt) ermittelt.

[4] = protective spray, 0,0025 Gew.-% in the spray liquor

Row | SMILES | Befall in % bei einer Wirkstoffkonzentration von 5 ppm [1] | Krankheits-befall in % der unbe-handelten Kontrolle [2, 4] | further results
1 | CCCCCCCCOP(=O)(OCC)Oc1nc(Cl)c(Cl)cc1Cl (centres unmarked) [Beispiel 3] | 19% |  | 
2 | CCCCOP(=O)(OC)Oc1ncc(Cl)cc1Cl (centres unmarked) [Beispiel 10] |  | 12,5 % der unbe-handelten Kontrolle | 
3 | CCCOP(=O)(OC)Oc1nc(Cl)c(Cl)cc1Cl (centres unmarked) [Beispiel 12] |  |  | IC50 [3]: 39 nM
4 | CCCCCCOP(=O)(OC)Oc1ncc(Cl)cc1Cl (centres unmarked) [Beispiel 9] |  | 25,0 % der unbe-handelten Kontrolle | 
5 | CCCCOP(=O)(OC)Oc1nc(Cl)c(Cl)cc1Cl (centres unmarked) [Beispiel 4] | 5% |  | IC50 [3]: 36 nM
6 | CCCCOP(=O)(OCC)Oc1nc(Cl)c(Cl)cc1Cl (centres unmarked) [Beispiel 1, O-n-Butyl-O-ethyl-O-(3,5,6-trichlor-2-pyridyl)-phosphorsiureester] | 27% |  | 
7 | CCCCOP(=O)(OC)Oc1cccc(Cl)n1 (centres unmarked) [Beispiel 8] |  | 37,5 % der unbe-handelten Kontrolle | 
8 | CCOP(=O)(OCC)Oc1nc(Cl)c(Cl)cc1Cl [A, 0,0-Diethyl-0-(3,5,6-trichlor-2-pyridyl)-phosphorsäureester, reference compound] | 74% |  | Krankheits-befall in % der unbe-handelten Kontrolle ([2]; protective spray, 0,005 Gew.-% in the spray liquor): 58,7 % der unbe-handelten Kontrolle; IC50 [3]: 190 nM
9 | CCCCCCOP(=O)(OC)Oc1cccc(Cl)n1 (centres unmarked) [Beispiel 7] |  | 37,5 % der unbe-handelten Kontrolle | 
10 | CCCCCCOP(=O)(OCC)Oc1nc(Cl)c(Cl)cc1Cl (centres unmarked) [Beispiel 2] | 11% |  | 
11 | CCCCCCOP(=O)(OC)Oc1nc(Cl)c(Cl)cc1Cl (centres unmarked) [Beispiel 5] | 3% |  | 

Source: patent publication EP0237866A1, “Selective fungicidal use of asymmetric 2-pyridyl phosphoric acid esters” (priority 1986, dated 1987)
